Assays:
Test in all cases: normalised response (% of control), CellTox Green; higher = less cell death (100 = DMSO, 0 = benzethonium chloride kill control)
Conditions in all cases: incubation time: 72 h
MFM-223 = tested on: MFM-223
Procedure, shortened: (§1)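 Values are normalised signals, each belonging to one concentration of the series. Breast cancer cells (20 µl suspension) were seeded into 384-well plates with compound at 5 concentrations in 10-fold steps over a compound-specific 10,000-fold range and incubated 72 h. Readouts were CellTox Green fluorescence (485/520 nm), then CellTiter-Glo luminescence after 10 min at room temperature, with each plate set to 0.1 % DMSO as 100 and a positive kill control as 0.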

HDQ-P1 = tested on: HDQ-P1
Procedure, shortened: as §1

HCC1143 = tested on: HCC1143
Procedure, shortened: as §1

CAL-85-1 = tested on: CAL-85-1
Procedure, shortened: as §1

HCC1937 = tested on: HCC1937
Procedure, shortened: as §1

CAL-51 = tested on: CAL-51
Procedure, shortened: as §1

MCF-10A = tested on: MCF-10A
Procedure, shortened: as §1

Hs578T = tested on: Hs578T
Procedure, shortened: as §1

SMILES | normalised response (MFM-223) | normalised response (HDQ-P1) | normalised response (HCC1143) | normalised response (CAL-85-1) | normalised response (HCC1937) | normalised response (CAL-51) | normalised response (MCF-10A) | normalised response (Hs578T)
COc1ccc(S(=O)(=O)Nc2cccnc2Nc2ccc(O)cc2)cc1 [ABT-751] (1000 nM) | 83.6% | 90.5% | 98.9% | 35.1% | -57.9% | 110% | 81.3% | 78.8%
COc1ccc(S(=O)(=O)Nc2cccnc2Nc2ccc(O)cc2)cc1 [ABT-751] (10000 nM) | 35.7% | 107% | 121% | 50.8% | 108% | 32.5% | 42.6% | 29.5%
Cc1cc(Nc2nc(N[C@@H](C)c3ncc(F)cn3)ncc2Cl)[nH]n1 [AZD1480] (100 nM) | 100% | 97.1% | 58.8% | 99.9% | 100% | 107% | 85.5% | 96.6%
Cc1cc(Nc2nc(N[C@@H](C)c3ncc(F)cn3)ncc2Cl)[nH]n1 [AZD1480] (1000 nM) | 41.5% | 69.3% | 97.3% | 109% | 69.3% | 69.4% | 98.9% | 71.7%
CNC(=O)c1ccccc1Sc1ccc2c(/C=C/c3ccccn3)n[nH]c2c1 [Axitinib] (1000 nM) | 66.7% | 102% | 51.8% | 104% | 122% | 76% | 97.6% | 115%
CNC(=O)c1ccccc1Sc1ccc2c(/C=C/c3ccccn3)n[nH]c2c1 [Axitinib] (10000 nM) | 97.7% | 58.1% | 103% | 75.7% | 91.2% | 40.2% | 93.8% | 119%
CC(O)(CS(=O)(=O)c1ccc(F)cc1)C(=O)Nc1ccc(C#N)c(C(F)(F)F)c1 (stereo not drawn) [Bicalutamide] (1000 nM) | 97.5% | 104% | 111% | 94.6% | 59.6% | 112% | 105% | –
CC(O)(CS(=O)(=O)c1ccc(F)cc1)C(=O)Nc1ccc(C#N)c(C(F)(F)F)c1 (stereo not drawn) [Bicalutamide] (10000 nM) | 100% | 66.2% | 134% | 67.6% | 112% | 92.2% | 106% | 86%
CCNC(=O)CCC/C=C\C[C@@H]1[C@@H](/C=C/[C@@H](O)CCc2ccccc2)[C@H](O)C[C@@H]1O [Bimatoprost] (550 nM) | 103% | 66.3% | 105% | 93.9% | 129% | 106% | 108% | 97.8%
CCNC(=O)CCC/C=C\C[C@@H]1[C@@H](/C=C/[C@@H](O)CCc2ccccc2)[C@H](O)C[C@@H]1O [Bimatoprost] (5500 nM) | 97.4% | 79.9% | 117% | 106% | 104% | 112% | 86.9% | 61.1%
COc1cc(Nc2c(C#N)cnc3cc(OCCCN4CCN(C)CC4)c(OC)cc23)c(Cl)cc1Cl [Bosutinib] (1000 nM) | – | 93.3% | 116% | 93.7% | 110% | 84.4% | 93.7% | 78%
COc1cc(Nc2c(C#N)cnc3cc(OCCCN4CCN(C)CC4)c(OC)cc23)c(Cl)cc1Cl [Bosutinib] (10000 nM) | 81.3% | 31.8% | 99.6% | -81.2% | 32.9% | 38.5% | -50.5% | 72.5%
Cn1cc(C2=C(c3cn(C4CCN(Cc5ccccn5)CC4)c4ccccc34)C(=O)NC2=O)c2ccccc21 [Enzastaurin] (1000 nM) | 82% | 87.7% | 105% | 97.7% | – | 104% | 109% | 97.7%
Cn1cc(C2=C(c3cn(C4CCN(Cc5ccccn5)CC4)c4ccccc34)C(=O)NC2=O)c2ccccc21 [Enzastaurin] (10000 nM) | 100% | 101% | 111% | 65% | 121% | 95.7% | 94.4% | –

— the supplement of paper PMC4862054
